The text below walks through data of patent US20210322785A1, “COMPOSITIONS AND METHODS FOR TREATING WOUNDS” (C.P. MEDICAL CORPORATION, priority 2018, published 2021).

A short description of series [1]: Drug elution from polymer into PBS at 37° C. Format: physicochemical. The following applies: within the first three days; polymer prepared with Nolvasan, 2% chlorhexidine dose (50 mg); PBS 37° C. How it is done: A Thermo Scientific GENESYS 10S UV-Vis spectrophotometer was used to quantify the release of various drugs from several polymers. First, the reference drug or drug solution was dissolved in an appropriate solvent. Typically, phosphate buffered saline (PBS), ethanol or dimethylsulfoxide (DMSO) were used as the solvent. Next, the optimal absorption peak for identifying and quantifying the drug was determined by performing a scan of the drug solution between 200 and 1000 nm. With the absorption peak selected, a reference curve was established by measuring the peak absorbance for various concentrations of the drug. […]
Elution samples were collected daily by decanting the PBS solution from the polymer. The volume of sample collected was recorded. […] The elution sample was analyzed by first diluting the sample in the appropriate solvent using analytical pipettes such that the measured absorbance was in the range determined by the reference curve. The dilution factor was recorded. The drug concentration was calculated from the measured absorbance via the reference curve and the dilution factor. The drug amount was calculated by multiplying the drug concentration with the sample volume. The percent elution for that day was calculated by dividing the drug amount by the total amount of drug administered. […]

Series [2] can be described thus: Hydrogel surface spread test. Format: physicochemical. Further details: key: 1: no spreading, tight drops that stay in place; 2: mild spreading, drops drip slowly down; 3: severe spreading, drops completely wet surface. The following applies: drop from 22 gauge needle on 97.5% water hydrogel surface, incline about 30°. How it is done:
To model the performance of the polymer solutions on a hydrophilic surface the extent of spreading and dripping of droplets on a high water content biocompatible hydrogel polymer matrix surface at an incline of about 30° was recorded. […] The solution was stirred with a spatula for 10 to 20 seconds and allowed to gel, which typically took 5 to 10 minutes. The water content of the resulting polymer was 97.5%.
The test was performed by first preparing the polymer solution in the usual fashion. After thorough mixing, the polymer solution was dispensed dropwise through a 22 gauge needle onto the biocompatible biocompatible hydrogel polymer matrix surface. The results are shown in Table 9B and were divided into three general categories: 1) no spreading, tight drops that stay in place; 2) mild spreading, drops drip slowly down; 3) severe spreading, drops completely wet surface. Water is in category 3.

With `[H]/N=C(\N/C(=N/[H])NCCCCCCNC(=N)NC(=N)Nc1ccc(Cl)cc1)Nc1ccc(Cl)cc1` [chlorhexidine], the “chlorhexidine released from polymer” value in series [1] is on record as “Almost half”.
With Water, the “hydrogel surface spread test category” value in series [2] is reported as 3.
